Experimental data taken from article PMC2639753 (Bioorganic & medicinal chemistry, 2008).

Experiments:
HIV-1 (IIIB) = test: Antiviral activity against HIV-1; details: MT-2 cells
HIV-1 RT = HIV-1 RT (Human immunodeficiency virus type 1 group M subtype B, UniProt P03366); test: In vitro steady-state RT inhibition assay; type: biochemical

Q: With `C#CCOc1ccc(OC)cc1CCNC(=S)Nc1ccc(Br)cn1` [6b, N-(5-Bromo-2-pyridinyl)-N′-[2-(5-methoxy-2-propargyloxyphenyl)ethyl]-thiourea] as the compound, how does the “activity relative to HI-236 in cell culture” value (HIV-1 (IIIB)) read?
A: The value was “equal to HI-236”.

Q: Which “fold increase in activity compared to HI-236 in the RT assay” value (HIV-1 RT) does the source give for `C#CCCOc1ccc(OC)cc1CCNC(=S)Nc1ccc(Br)cn1` [6c, N-(5-Bromo-2-pyridinyl)-N′-{2-[2-(3-butynyl-1-oxy)-5-methoxyphenyl]ethyl}-thiourea] here?
A: The value was 7 fold.

Q: Which “activity relative to HI-236 in the RT assay” value (HIV-1 RT) does the source give for `C#CCCCOc1ccc(OC)cc1CCNC(=S)Nc1ccc(Br)cn1` [6d, N-(5-Bromo-2-pyridinyl)-N′-{2-[5-methoxy-2-(4-pentynyl-1-oxy)phenyl]ethyl}-thiourea] here?
A: The value was “as active as HI-236”.

Q: With `C#CCOCCOc1ccc(OC)cc1CCNC(=S)Nc1ccc(Br)cn1` [6i] as the compound, how does the “T.I (in vitro therapeutic index CC50/EC50)” value (HIV-1 (IIIB)) read?
A: Its value is 100.

Q: Which results are given for `COC(=O)COc1ccc(OC)cc1CCNC(=S)Nc1ccc(Br)cn1` [6k, N-(5-Bromo-2-pyridinyl)-N′-[2-(2-methoxycarbonylmethyloxy-5-methoxyphenyl)ethyl]-thiourea]?
A: IC50 (HIV-1 RT): 100 nM; fold improvement in RT assay over cell culture (HIV-1 RT; RT IC50 versus cell-culture EC50): 120 fold

Q: For `COc1ccc(OCCCC#N)c(CCNC(=S)Nc2ccc(Br)cn2)c1` [6m], which “activity relative to HI-236 in cell culture” value (HIV-1 (IIIB)) is on record?
A: Its value is “equal to HI-236”.

Q: How did the “activity relative to HI-236 in the RT assay” value (HIV-1 RT) turn out when `COc1ccc(OCCCO)c(CCNC(=S)Nc2ccc(Br)cn2)c1` [6o] was run?
A: The value was “as active as HI-236”.
